Here are results for 28 compounds from patent publication US9120779B2, “Inhibitors of HCV NS5A” (PRESIDIO PHARMACEUTICALS, INC., priority 2008, dated 2015).

This experiment concerns HCV genotype 1b replicon in Huh 7 cells. Nature of the experiment: HCV replicon assay (luciferase readout, 1b_Huh-Luc/Neo-ET cell line). It counts as cell-based. Put shortly:
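Inhibition expressed as percent of untreated control luciferase signal and fitted to a Hill-slope equation for EC50, with repeat determinations. Compounds were added in triplicate to Huh 7 cells stably expressing the genotype 1b luciferase replicon, with 72 h exposure.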
In general terms: Replicon systems follow genome replication, usually without infectious particles.

The mark [1] stands for this setting: Hepatitis C virus, Huh-7, 72 h, read-out: Inhibition of HCV genotype 1b, Table 5, 72 h incubation.
Setting [2] is: Hepatitis C virus, Huh-7, 72 h, read-out: Inhibition of HCV genotype 1b, Table 3, 72 h incubation.
Where [3] appears, read: read-out: Inhibition of HCV genotype 1b, Table 5, 72 h incubation.
Where [4] appears, read: Hepatitis C virus, Huh-7, 72 h, read-out: Inhibition of HCV genotype 1b, Table 1, 72 h incubation.

Structures are written as SMILES. Like-named read-outs stand apart in the source and are kept apart here.

On to `COC(=O)N[C@H](Cc1ccccc1)C(=O)N1CCC[C@H]1c1ncc(C23CCC(c4ccc(-c5cnc([C@@H]6CCCN6C(=O)[C@H](NC(=O)OC)c6ccccc6)[nH]5)cc4)(CC2)CC3)[nH]1` [compound 610], for which the EC50 under setting [1] was less than 1 nM. Still for that read-out and setting: in the case of `COC(=O)N[C@H](C(=O)N1CCC[C@H]1c1ncc(C23CCC(c4ccc(-c5cnc([C@@H]6CCCN6C(=O)[C@@H](NC(=O)N6CCCCC6)C(C)C)[nH]5)cc4)(CC2)CC3)[nH]1)C(C)C` [compound 648] it was 10 to 999 nM; in that of `COC(=O)N[C@@H](C(=O)N1CCC[C@H]1c1ncc(-c2ccc(C34CCC(c5cnc([C@@H]6CCCN6C(=O)[C@@H](NC(=O)N6CCC(=O)CC6)C(C)C)[nH]5)(CC3)CC4)cc2)[nH]1)c1ccccc1` [compound 644], 1 to 9.9 nM. On the same count and under the same terms, as for `COC(=O)N[C@H](C(=O)N1CCC[C@H]1c1ncc(C23CCC(c4ccc(-c5cnc([C@@H]6CCCN6C(=O)[C@@H](C(C)C)N(C)C)[nH]5)cc4)(CC2)CC3)[nH]1)C(C)C` [compound 2070], the figure is less than 1 nM.

As for `COC(=O)N[C@@H](C(=O)N1CCC[C@H]1c1ncc(-c2cc(F)c(N3CCC(c4cnc([C@@H]5COCCN5C(=O)[C@H](NC(=O)C5CC5)c5ccccc5)[nH]4)CC3)c(F)c2)[nH]1)c1ccccc1` [compound 494], under setting [2], the EC50 was less than 1 nM. With `COC(=O)N[C@H](C(=O)N1CCC[C@H]1c1nc2ccc(-c3ccc(-c4ccc5nc([C@@H]6CCCN6C(=O)[C@@H](C(C)C)N(C)C)[nH]c5c4)cc3)cc2[nH]1)C(C)C` [compound 934], the EC50 (Hepatitis C virus, Huh-7, 72 h, read-out: Inhibition of HCV genotype 1b, Table 4, 72 h incubation) is less than 1 nM. As for `COC(=O)N[C@@H](C(=O)N(C)[C@@H](C)c1ncc(C2CCN(c3c(F)cc(-c4cnc([C@@H]5CCCN5C(=O)[C@H](NC(=O)OC)c5ccccc5)[nH]4)cc3F)CC2)[nH]1)c1ccccc1` [compound 506], under setting [2], the EC50 is less than 1 nM. Take `COC(=O)N[C@H](C(=O)N1CCC[C@H]1c1ncc(-c2ccc(C34CCC(c5cnc([C@@H]6CCCN6C(=O)[C@@H](NC(=O)N6CCOCC6)C(C)C)[nH]5)(CC3)CC4)cc2)[nH]1)C(C)C` [compound 636]: the EC50 under setting [3] is less than 1 nM. `COC(=O)N[C@H](C(=O)N1CCC[C@H]1c1ncc(-c2ccc(C34CCC(c5cnc([C@@H]6CCCN6C(=O)[C@@H](NC(=O)N6CCC(O)CC6)C(C)C)[nH]5)(CC3)CC4)cc2)[nH]1)C(C)C` [compound 2059]: under setting [1], the EC50 was less than 1 nM.

Regarding `COC(=O)N[C@H](C(=O)N1CCC[C@H]1c1ncc(C23CCC(c4ccc(-c5cnc([C@@H]6CCCN6C(=O)[C@H](NC(=O)OC)c6ccccc6)[nH]5)cc4)(CC2)CC3)[nH]1)[C@@H](C)OC` [compound 609], under setting [1], the EC50 was less than 1 nM. Same read-out and setting: as for `COC(=O)N[C@H](C(=O)N1CCC[C@H]1c1ncc(-c2ccc(C34CCC(c5cnc([C@@H]6CCCN6C(=O)[C@@H](NC(=O)OC6CCOCC6)C(C)C)[nH]5)(CC3)CC4)cc2)[nH]1)C(C)C` [compound 2053], the figure is 1 to 9.9 nM. Still for that read-out and setting: in the case of `COC(=O)N[C@H](C(=O)N1CCC[C@H]1c1ncc(C23CCC(c4ccc(-c5cnc([C@@H]6CCCN6C(=O)[C@H](NC6CCOCC6)C(C)C)[nH]5)cc4)(CC2)CC3)[nH]1)C(C)C` [compound 915] it was less than 1 nM; in that of `COC(=O)N(C)[C@H](C(=O)N1CCC[C@H]1c1ncc(-c2ccc(C34CCC(c5cnc([C@@H]6CCCN6C(=O)[C@H](C(C)C)N(C)C(=O)OC)[nH]5)(CC3)CC4)cc2)[nH]1)C(C)C` [compound 913], less than 1 nM. As to `COC(=O)N[C@H](Cc1ccccc1)C(=O)N1CCC[C@H]1c1ncc(C2CCC(c3ccc(-c4cnc([C@@H]5CCCN5C(=O)[C@@H](c5ccccc5)N5CCCC5)[nH]4)cc3)CC2)[nH]1` (stereo partly shown) [compound 375], under setting [4], the EC50 is less than 1 nM. Still for that read-out and setting: in the case of `COC(=O)N[C@H](C(=O)N1CCC[C@H]1c1ncc(-c2ccc(C3CCC(c4cnc([C@@H]5CCCN5C(=O)[C@@H](NC(=O)OC)c5ccccc5)[nH]4)CC3)cc2)[nH]1)c1ccccc1` (stereo partly shown) [compound 374] it was less than 1 nM. In the case of `COC(=O)N[C@@H](CC(C)C)C(=O)N1CCC[C@H]1c1ncc(C23CCC(c4ccc(-c5cnc([C@@H]6CCCN6C(=O)[C@@H](NC(=O)OC)C(C)C)[nH]5)cc4)(CC2)CC3)[nH]1` [compound 2065], under setting [1], the EC50 was less than 1 nM. Take `O=C(N[C@@H](C(=O)N1CCC[C@H]1c1ncc(-c2cc(F)c(N3CCC(c4cnc([C@@H]5CCCCN5C(=O)[C@H](NC(=O)C5CC5)c5ccccc5)[nH]4)CC3)c(F)c2)[nH]1)c1ccccc1)C1CC1` [compound 484]: the EC50 under setting [2] is less than 1 nM. On the same count and under the same terms, as for `COC(=O)N[C@H](C(=O)N[C@@H](C)c1ncc(-c2cc(F)c(N3CCC(c4cnc([C@@H]5CCCN5C(=O)[C@@H](NC(=O)OC)C(C)C)[nH]4)CC3)c(F)c2)[nH]1)C(C)C` [compound 519], the figure is less than 1 nM; as for `COC(=O)N[C@@H](C(=O)N1CCC[C@H]1c1ncc(-c2cc(F)c(N3CCC(c4cnc([C@@H]5CCCN5C(=O)[C@H](NC(=O)OC)c5ccccc5)[nH]4)CC3)c(F)c2)[nH]1)c1ccccc1` [compound 459], less than 1 nM. Regarding `COC(=O)N[C@H](C(=O)N1CCC[C@H]1c1ncc(-c2ccc(C34CCC(c5cnc([C@@H]6CCCN6C(=O)[C@@H](NC(=O)OC)C6CCCC6)[nH]5)(CC3)CC4)cc2)[nH]1)C1CCCC1` [compound 2094], the EC50 under setting [1] is less than 1 nM. Consider `COC(=O)N[C@H](C(=O)N1CCC[C@H]1c1ncc(-c2ccc([C@H]3CC[C@H](c4cnc([C@@H]5CCCN5C(=O)[C@H](NC(=O)OC5CCOCC5)C(C)C)[nH]4)CC3)cc2)[nH]1)C(C)C` [compound 946], for which, under setting [4], the EC50 is less than 1 nM. For `COC(=O)N[C@@H](C(=O)N1CCC[C@H]1c1ncc(-c2cc(F)c(N3CCC(c4cnc([C@@H]5CCCN5C(=O)[C@H](NC(=O)N5CCN(C)CC5)c5ccccc5)[nH]4)CC3)c(F)c2)[nH]1)c1ccccc1` [compound 462], the EC50 under setting [2] was less than 1 nM.

Regarding `COC(=O)N[C@H](C(=O)N1CCC[C@H]1c1ncc(-c2ccc(C34CCC(c5cnc([C@@H]6CCCN6C(=O)[C@@H](NC(=O)N6CCC(O)CC6)C(C)C)[nH]5)(CC3)CC4)cc2)[nH]1)C(C)C` [compound 633], under setting [3], the EC50 was less than 1 nM. For the compound `COC(=O)N[C@@H](C(=O)N1CCC[C@H]1c1ncc(-c2ccc(C34CCC(c5cnc([C@@H]6CCCN6C(=O)[C@H](NC(=O)OC)C(C)C)[nH]5)(CC3)CC4)cc2)[nH]1)c1ccccc1` [compound 616], under setting [1], the EC50 was less than 1 nM. `CC(C)[C@H](NC(=O)N1CCOCC1)C(=O)N1CCC[C@H]1c1ncc(-c2ccc([C@H]3CC[C@H](c4cnc([C@@H]5CCCN5C(=O)[C@@H](NC(=O)N5CCOCC5)C(C)C)[nH]4)CC3)cc2)[nH]1` [compound 385]: the EC50 under setting [4] fell in the range of 10 to 999 nM. As for `O=C(N[C@H]1CC[C@@H](c2cccc(-c3cnc([C@@H]4CCCN4C(=O)[C@H](NC(=O)N4CCOCC4)c4ccccc4)[nH]3)c2)CC1)[C@@H]1CCCN1C(=O)[C@H](NC(=O)N1CCOCC1)c1ccccc1` [compound 365], the EC50 under setting [4] was in the range of 1 to 9.9 nM. On the same count and under the same terms, in the case of `CC[C@H](C)[C@H](NC(=O)OC)C(=O)N1CCC[C@H]1c1ncc(-c2ccc([C@H]3CC[C@H](c4cnc([C@@H]5CCCN5C(=O)[C@@H](NC(=O)OC)[C@@H](C)CC)[nH]4)CC3)cc2)[nH]1` [compound 943] it was less than 1 nM.

As for `COC(=O)N[C@@H](C(=O)N1CCC[C@H]1c1ncc(-c2cc(F)c(N3CCC(c4cnc([C@@H]5CCCN5C(=O)[C@@H](c5ccccc5)N5CCCCC5)[nH]4)CC3)c(F)c2)[nH]1)c1ccccc1` [compound 469], under setting [2], the EC50 was less than 1 nM.
